Data on three compounds can be found in paper PMC10648927, “Examining the activity of cefepime-taniborbactam against Burkholderia cepacia complex and Burkholderia gladioli isolated from cystic fibrosis patients in the United States” (Antimicrobial Agents and Chemotherapy, 2023).

Common to all, as to set-up: agar dilution MIC, growth inhibition of clinical Burkholderia isolates
A general note: In agar dilution the substance is mixed into plates at graded concentrations.

One experiment deals with T1, B. arboris AU24192.
T1 construct: AU24192
As to the kind of experiment: organism not typed. Summed up: (§1)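 MICs by agar dilution against Bcc and B. gladioli clinical isolates, interpreted with CLSI breakpoints where available; K. pneumoniae ATCC 700603 (SHV-18) and ATCC BAA-1705 (KPC) served as quality controls.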

Another experiment deals with T2, B. ambifaria AU20319.
T2 construct: AU20319
As to the kind of experiment: microbe, parasite or virus in culture. The conditions noted are these: Burkholderia ambifaria, AU20319. A digest of the protocol: as §1

Another experiment has as its system T3, B. gladioli AU29223.
T3 construct: AU29223
As to the kind of experiment: organism not typed. Summed up:
as §1

A further experiment concerns T4, B. cenocepacia AU20146.
T4 construct: AU20146
As to the kind of experiment: microbe, parasite or virus in culture. The conditions noted are these: Burkholderia cenocepacia, AU20146. A digest of the protocol:
as §1

The test system of the next experiment is T5, B. seminalis AU14842.
T5 construct: AU14842
As to the kind of experiment: organism not typed. A digest of the protocol: as §1

For a further experiment, the system named is T6, B. multivorans AU17545.
T6 construct: AU17545
As to the kind of experiment: microbe, parasite or virus in culture. The conditions noted are these: Burkholderia multivorans, AU17545. Summed up:
as §1

The subject of the next experiment is T7, B. cenocepacia AU9710.
T7 construct: AU9710
As to the kind of experiment: microbe, parasite or virus in culture. As to conditions: Burkholderia cenocepacia, AU9710. Summed up: as §1

Another experiment deals with T8, B. cenocepacia AU9512.
T8 construct: AU9512
As to the kind of experiment: microbe, parasite or virus in culture. As to conditions: Burkholderia cenocepacia, AU9512. Summed up:
as §1

The next experiment deals with T9, B. arboris AU14372.
T9 construct: AU14372
As to the kind of experiment: organism not typed. Summed up:
as §1

The subject of a further experiment is T10, B. cenocepacia AU20902.
T10 construct: AU20902
As to the kind of experiment: microbe, parasite or virus in culture. As to conditions: Burkholderia cenocepacia, AU20902. Summed up:
as §1

For another experiment, the system named is T11, B. cenocepacia AU20545.
T11 construct: AU20545
As to the kind of experiment: microbe, parasite or virus in culture. As to conditions: Burkholderia cenocepacia, AU20545. A digest of the protocol: as §1

The test system of another experiment is T12, B. cenocepacia AU12571.
T12 construct: AU12571
As to the kind of experiment: microbe, parasite or virus in culture. The conditions noted are these: Burkholderia cenocepacia, AU12571. A digest of the protocol:
as §1

The subject of another experiment is T13, B. cenocepacia AU9215.
T13 construct: AU9215
As to the kind of experiment: microbe, parasite or virus in culture. As to conditions: Burkholderia cenocepacia, AU9215. Summed up:
as §1

The subject of a further experiment is T14, B. multivorans AU11233.
T14 construct: AU11233
As to the kind of experiment: microbe, parasite or virus in culture. The conditions noted are these: Burkholderia multivorans, AU11233. A digest of the protocol:
as §1

Another experiment concerns T15, B. ambifaria AU11161.
T15 construct: AU11161
As to the kind of experiment: microbe, parasite or virus in culture. The conditions noted are these: Burkholderia ambifaria, AU11161. A digest of the protocol: as §1

The next experiment deals with T16, B. multivorans AU23668.
T16 construct: AU23668
As to the kind of experiment: microbe, parasite or virus in culture. The conditions noted are these: Burkholderia multivorans, AU23668. Summed up:
as §1

In the next experiment the test system is T17, B. contaminans AU2244.
T17 construct: AU2244
As to the kind of experiment: organism not typed. A digest of the protocol: as §1

The next experiment has as its system T18, B. cenocepacia AU10321.
T18 construct: AU10321
As to the kind of experiment: microbe, parasite or virus in culture. As to conditions: Burkholderia cenocepacia, AU10321. Summed up: as §1

The next experiment concerns T19, B. dolosa AU29021.
T19 construct: AU29021
As to the kind of experiment: microbe, parasite or virus in culture. The conditions noted are these: Burkholderia dolosa, AU29021. Summed up:
as §1

The subject of a further experiment is T20, B. multivorans AU27706.
T20 construct: AU27706
As to the kind of experiment: microbe, parasite or virus in culture. As to conditions: Burkholderia multivorans, AU27706. Summed up: as §1

In the next experiment the test system is T21, B. multivorans AU14328.
T21 construct: AU14328
As to the kind of experiment: microbe, parasite or virus in culture. As to conditions: Burkholderia multivorans, AU14328. Summed up: as §1

For a further experiment, the system named is T22, B. multivorans AU4507.
T22 construct: AU4507
As to the kind of experiment: microbe, parasite or virus in culture. The conditions noted are these: Burkholderia multivorans, AU4507. Summed up: as §1

Another experiment deals with T23, B. multivorans AU28069.
T23 construct: AU28069
As to the kind of experiment: microbe, parasite or virus in culture. As to conditions: Burkholderia multivorans, AU28069. Summed up:
as §1

Converted amounts (≈) assume the structure as drawn.

As for `CO/N=C(\C(=O)N[C@@H]1C(=O)N2C(C(=O)[O-])=C(C[N+]3(C)CCCC3)CS[C@H]12)c1csc(N)n1` [cefepime], the MIC was 32 µg/mL (≈ 66.6 µM) in the experiment on B. arboris AU24192; more than 32 µg/mL against B. ambifaria AU20319; 16 µg/mL (≈ 33.3 µM) with B. gladioli AU29223; 16 µg/mL (≈ 33.3 µM) in the experiment on B. cenocepacia AU20146; 16 µg/mL (≈ 33.3 µM) with B. seminalis AU14842; 16 µg/mL (≈ 33.3 µM) against B. multivorans AU17545. Also, the MIC against B. cenocepacia AU9710 is 16 µg/mL (≈ 33.3 µM); against B. cenocepacia AU9512, 32 µg/mL (≈ 66.6 µM); in the experiment on B. arboris AU14372 it was more than 32 µg/mL; against B. cenocepacia AU20902, 16 µg/mL (≈ 33.3 µM); against B. cenocepacia AU20545, 8 µg/mL (≈ 16.6 µM); with B. cenocepacia AU12571 it was 16 µg/mL (≈ 33.3 µM). Moreover, the MIC against B. cenocepacia AU9215 was more than 32 µg/mL; in the experiment on B. multivorans AU11233 it was more than 32 µg/mL; in the experiment with B. ambifaria AU11161, more than 32 µg/mL; against B. multivorans AU23668, 4 µg/mL (≈ 8.32 µM); in the experiment with B. contaminans AU2244, 16 µg/mL (≈ 33.3 µM); in the experiment with B. cenocepacia AU10321, more than 32 µg/mL. Further, the MIC in the experiment on B. dolosa AU29021 is more than 32 µg/mL; in the experiment with B. multivorans AU27706 it was 1 µg/mL (≈ 2.08 µM); in the experiment on B. multivorans AU14328, 8 µg/mL (≈ 16.6 µM); against B. multivorans AU4507, 8 µg/mL (≈ 16.6 µM); with B. multivorans AU28069, 8 µg/mL (≈ 16.6 µM).

Turning to `C[C@H]1COc2c(N3CCN(C)CC3)c(F)cc3c(=O)c(C(=O)O)cn1c23` [levofloxacin], the MIC against B. arboris AU24192 turned out to be 4 µg/mL (≈ 11.1 µM); against B. ambifaria AU20319 it was 1 µg/mL (≈ 2.77 µM); in the experiment with B. gladioli AU29223 it was 0.5 µg/mL (≈ 1.38 µM); against B. cenocepacia AU20146, 2 µg/mL (≈ 5.53 µM); with B. seminalis AU14842, 4 µg/mL (≈ 11.1 µM); in the experiment with B. multivorans AU17545 it was 8 µg/mL (≈ 22.1 µM). The MIC with B. cenocepacia AU9710 came to 4 µg/mL (≈ 11.1 µM); against B. cenocepacia AU9512 it was 16 µg/mL (≈ 44.3 µM); in the experiment with B. arboris AU14372, 8 µg/mL (≈ 22.1 µM); in the experiment with B. cenocepacia AU20902 it was 4 µg/mL (≈ 11.1 µM); in the experiment with B. cenocepacia AU20545 it was 2 µg/mL (≈ 5.53 µM); against B. cenocepacia AU12571 it was 8 µg/mL (≈ 22.1 µM). The MIC is 32 µg/mL (≈ 88.6 µM) in the experiment on B. cenocepacia AU9215; 16 µg/mL (≈ 44.3 µM) with B. multivorans AU11233; 32 µg/mL (≈ 88.6 µM) against B. ambifaria AU11161; 2 µg/mL (≈ 5.53 µM) in the experiment on B. multivorans AU23668; 4 µg/mL (≈ 11.1 µM) against B. contaminans AU2244; more than 32 µg/mL against B. cenocepacia AU10321. In addition, the MIC came out at 4 µg/mL (≈ 11.1 µM) in the experiment on B. dolosa AU29021; 1 µg/mL (≈ 2.77 µM) in the experiment with B. multivorans AU27706; 2 µg/mL (≈ 5.53 µM) with B. multivorans AU14328; 8 µg/mL (≈ 22.1 µM) in the experiment with B. multivorans AU4507; 4 µg/mL (≈ 11.1 µM) against B. multivorans AU28069.

For `C[C@@H](O)[C@H]1C(=O)N2C(C(=O)O)=C(S[C@@H]3CN[C@H](C(=O)N(C)C)C3)[C@H](C)[C@H]12` [meropenem], the MIC with B. arboris AU24192 amounted to 8 µg/mL (≈ 20.9 µM); in the experiment with B. ambifaria AU20319, 4 µg/mL (≈ 10.4 µM); in the experiment with B. gladioli AU29223 it was 1 µg/mL (≈ 2.61 µM); in the experiment on B. cenocepacia AU20146, 4 µg/mL (≈ 10.4 µM); in the experiment with B. seminalis AU14842, 4 µg/mL (≈ 10.4 µM); against B. multivorans AU17545 it was 2 µg/mL (≈ 5.22 µM). Besides, the MIC against B. cenocepacia AU9710 was determined as 4 µg/mL (≈ 10.4 µM); with B. cenocepacia AU9512 it was 4 µg/mL (≈ 10.4 µM); in the experiment with B. arboris AU14372 it was 16 µg/mL (≈ 41.7 µM); against B. cenocepacia AU20902 it was 4 µg/mL (≈ 10.4 µM); against B. cenocepacia AU20545, 2 µg/mL (≈ 5.22 µM); against B. cenocepacia AU12571, 2 µg/mL (≈ 5.22 µM). For the same compound, the MIC against B. cenocepacia AU9215 amounted to 16 µg/mL (≈ 41.7 µM); in the experiment on B. multivorans AU11233, 8 µg/mL (≈ 20.9 µM); in the experiment on B. ambifaria AU11161, 8 µg/mL (≈ 20.9 µM); with B. multivorans AU23668, 2 µg/mL (≈ 5.22 µM); in the experiment on B. contaminans AU2244 it was 4 µg/mL (≈ 10.4 µM); against B. cenocepacia AU10321 it was 16 µg/mL (≈ 41.7 µM). For the same compound, the MIC with B. dolosa AU29021 was 8 µg/mL (≈ 20.9 µM); against B. multivorans AU27706, 0.5 µg/mL (≈ 1.3 µM); against B. multivorans AU14328, 4 µg/mL (≈ 10.4 µM); in the experiment on B. multivorans AU4507, 8 µg/mL (≈ 20.9 µM); in the experiment on B. multivorans AU28069, 4 µg/mL (≈ 10.4 µM).
